According to patent US7510847B2, “Kidney-specific urate transporter and gene thereof” (Human Cell Systems, Inc., priority 2001, dated 2009):

How the values were obtained:
[1] = biological target: T1, URAT1 (Homo sapiens, UniProt Q96S37); assay: inhibition of [14C] uric acid uptake by oocytes injected with URAT1 cRNA
T1 sequence (Q96S37 1-553): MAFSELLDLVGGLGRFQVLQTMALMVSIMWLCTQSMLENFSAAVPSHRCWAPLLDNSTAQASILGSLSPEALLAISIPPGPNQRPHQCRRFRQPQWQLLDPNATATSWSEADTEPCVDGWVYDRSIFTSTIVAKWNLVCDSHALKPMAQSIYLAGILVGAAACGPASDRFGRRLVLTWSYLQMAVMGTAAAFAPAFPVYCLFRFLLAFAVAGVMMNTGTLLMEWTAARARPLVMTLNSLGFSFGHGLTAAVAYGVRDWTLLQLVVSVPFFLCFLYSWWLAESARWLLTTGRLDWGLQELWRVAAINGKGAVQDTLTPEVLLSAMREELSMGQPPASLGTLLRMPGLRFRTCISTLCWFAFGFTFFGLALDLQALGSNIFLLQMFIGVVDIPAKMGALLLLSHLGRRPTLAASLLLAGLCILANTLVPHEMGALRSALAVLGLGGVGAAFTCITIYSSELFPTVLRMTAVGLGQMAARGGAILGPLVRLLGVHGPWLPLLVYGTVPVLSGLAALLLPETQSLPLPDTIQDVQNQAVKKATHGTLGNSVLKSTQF

[2] = biological target: T1, URAT1; assay: uric acid uptake by URAT1 oocytes after preincubation with or pre-injection of organic acids (exchange substrate study); format: cell-based; design: expressed in transfected cells; host or cells: Xenopus laevis oocytes ("platanna") injected with URAT1 cRNA; conditions: for uptake of radiolabeled uric acid after precedent injection of organic acid into oocytes: 100 nl of 100 mM injected, compared to water injected, FIG. 7; for uptake of uric acid after preincubation of oocytes with organic acid: preincubation 1 mM, oocytes injected with URAT1 cRNA, FIG. 6
Method: Therefore, 100 nl of 100 mM non-radiolabeled L-lactic acid was precedently injected in the oocytes, and then the uptake of the radiolabeled uric acid was observed (FIG. 7).

[3] = biological target: T1, URAT1; assay: uptake of radiolabeled substrates by oocytes injected with URAT1 cRNA; format: cell-based; design: expressed in transfected cells; host or cells: Xenopus laevis oocytes ("platanna") injected with URAT1 cRNA; conditions: oocytes of platanna injected with URAT1 cRNA
Method: Michaelis-Menten dynamic experiment in urate transport by URAT1 was carried out. Concentration dependency of uric acid in the transport by URAT1 was studied by examining change of uptake amounts of uric acid at various concentrations by URAT1. The uptake experiment of the radiolabeled uric acid was carried out using oocytes injected with URAT1 cRNA according to the method described above.

[4] = substrate: O=c1[nH]c(=O)c2[nH]c(=O)[nH]c2[nH]1; assay: as above; format: cell-based, human; conditions: other: oocytes injected with URAT1 cRNA, FIG. 3
[5] = 50 μM [14C] uric acid, pH 7.4, unlabeled compound at concentrations shown in FIG. 8

In the case of C[C@@H](O)C(=O)O [D-lactic acid], the “inhibition of transport/uptake of [14C] uric acid by URAT1” value [1, 5] is reported as “significantly inhibited”.

C[C@H](O)C(=O)O [L-lactic acid] was tested, and the “inhibition of transport/uptake of [14C] uric acid by URAT1” value [1, 5] was “significantly inhibited” and the “uptake of radiolabeled uric acid after precedent injection of organic acid into oocytes” value [2] was “significantly high uptake”.

For CCCCc1nc(Cl)c(CO)n1Cc1ccc(-c2ccccc2-c2nn[nH]n2)cc1 [Losartan], the IC50 [1] was ~20 µM and the “inhibition of transport/uptake of [14C] uric acid by URAT1” value [1, 5] was “significantly inhibited”.

Nc1ccc(C(=O)NCC(=O)O)cc1 [PAH, para-amino hippuric acid] was tested, and the “inhibition of transport/uptake of [14C] uric acid by URAT1” value [1, 5] was “did not show any inhibitory action”, the “uptake of 14C-labeled substrate by oocytes expressing URAT1” value (“uptake of 14C-labeled substrate” for short) [3] was “No uptake” and the “uptake of radiolabeled uric acid after precedent injection of organic acid into oocytes” value [2] was “no change”. The “uptake of uric acid after preincubation of oocytes with organic acid” value (“uptake of uric acid” below) [2] was “not facilitated”.

For CC[N+](CC)(CC)CC [TEA, tetraethylammonium], the “inhibition of transport/uptake of [14C] uric acid by URAT1” value [1, 5] was “did not show any inhibitory action” and the “uptake of 14C-labeled substrate” value [3] was “No uptake”.

In the case of CCc1oc2ccccc2c1C(=O)c1cc(Br)c(O)c(Br)c1 [benz-bromarone], the “inhibition of transport/uptake of [14C] uric acid by URAT1” value ([1]; pH 7.4) is reported as “significantly inhibited”.

With CC(O)C(=O)O (stereo not shown) [lactic acid] the “uptake of uric acid” value [2] was “not facilitated”.

For O=C(O)c1cccnc1 [nicotinic acid, 3-pyridine carboxylic acid], the “inhibition of transport/uptake of [14C] uric acid by URAT1” value [1, 5] was “significantly inhibited” and the “uptake of uric acid” value [2] was “significantly increased”.

CCCN(CCC)S(=O)(=O)c1ccc(C(=O)O)cc1 [probenecid] was tested, and the “inhibition of transport/uptake of [14C] uric acid by URAT1” value [1, 5] was “significantly inhibited”.

With O=C(O)c1cnccn1 [pyrazine carboxylic acid] the “inhibition of transport/uptake of [14C] uric acid by URAT1” value [1, 5] was “significantly inhibited” and the “uptake of uric acid” value [2] was “significantly increased”.

O=C1C(CC[S+]([O-])c2ccccc2)C(=O)N(c2ccccc2)N1c1ccccc1 (stereo not shown) [sulfinpyrazon] was tested, and the “inhibition of transport/uptake of [14C] uric acid by URAT1” value [1, 5] was “significantly inhibited”.

O=c1[nH]c(=O)c2[nH]c(=O)[nH]c2[nH]1 [uric acid] was tested, and the “uptake of 14C-labeled substrate” value [3] was “showed uptake”.

For Pyrazine dicarboxylic acid, the “inhibition of transport/uptake of [14C] uric acid by URAT1” value [1, 5] was “slightly weak inhibitory effect”.

B1: URAT1 (Homo sapiens) (protein)
chain: T1 sequence (Q96S37 1-553)
notes: expressed in transfected cells; host or cells: Xenopus laevis oocytes ("platanna") injected with URAT1 cRNA
B1 was tested, and the Km [4] was 372 ± 25 µM.
